Experimental data as given in ChEMBL document CHEMBL1136195, “Inhibition of Src kinase activity by 4-anilino-5,10-dihydro-pyrimido[4,5-b]quinolines” (Bioorg Med Chem Lett, 2003).

target: T1, Proto-oncogene tyrosine-protein kinase Src (Homo sapiens, UniProt P12931); experiment: (§1) Inhibition of Src protein tyrosine kinase; conditions: concentration not given here
T1 sequence (P12931 2-536 limits assumed): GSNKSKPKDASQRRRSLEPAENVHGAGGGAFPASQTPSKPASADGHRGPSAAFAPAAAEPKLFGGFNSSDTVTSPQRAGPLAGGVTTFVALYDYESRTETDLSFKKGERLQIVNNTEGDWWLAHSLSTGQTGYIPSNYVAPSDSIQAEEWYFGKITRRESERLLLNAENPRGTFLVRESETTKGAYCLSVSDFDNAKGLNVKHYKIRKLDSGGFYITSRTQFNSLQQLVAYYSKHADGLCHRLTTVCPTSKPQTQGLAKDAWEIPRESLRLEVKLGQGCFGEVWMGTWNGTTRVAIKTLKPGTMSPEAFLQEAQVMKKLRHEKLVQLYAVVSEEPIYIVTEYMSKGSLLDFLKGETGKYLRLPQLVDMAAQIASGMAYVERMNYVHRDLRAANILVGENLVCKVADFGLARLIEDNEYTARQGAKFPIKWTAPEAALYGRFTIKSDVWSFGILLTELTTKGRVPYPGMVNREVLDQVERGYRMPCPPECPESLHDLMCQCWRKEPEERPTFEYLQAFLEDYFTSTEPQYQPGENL

inhibition	SMILES
35%	COCCOc1cc2nc3ncnc(Nc4cc(OC)c(Cl)cc4Cl)c3cc2cc1OC

target: T1, Proto-oncogene tyrosine-protein kinase Src; experiment: as §1; conditions: not given

IC50	SMILES
3.3 nM	COc1cc(Nc2ncnc3c2Cc2cc(OC)c(OC)cc2N3)c(Cl)cc1Cl
9.8 nM	COCCOc1cc2c(cc1OC)Nc1ncnc(Nc3cc(OC)c(Cl)cc3Cl)c1C2
4.3 nM	COc1cc(Nc2c(C#N)cnc3cc(OC)c(OC)cc23)c(Cl)cc1Cl
30 nM	COc1cc2ncc(C#N)c(Nc3ccc(Cl)cc3Cl)c2cc1OC
16 nM	COCCOc1cc2c(cc1OC)Cc1c(Nc3ccc(Cl)cc3Cl)ncnc1N2
2.3 nM	COCCOc1cc2c(cc1OC)Cc1c(Nc3cc(OC)c(Cl)cc3Cl)ncnc1N2
> 10000 nM	COc1cc(Nc2ncnc3nc4cc(OC)c(OC)cc4cc23)c(Cl)cc1Cl
